Assay results reported in patent US9169254B2, “Spiroimidazolone derivative” (Chugai Seiyaku Kabushiki Kaisha, priority 2009, dated 2015).

Target: T1, human PTH1 receptor (Homo sapiens, UniProt Q03431)
T1 sequence (Q03431 27-593): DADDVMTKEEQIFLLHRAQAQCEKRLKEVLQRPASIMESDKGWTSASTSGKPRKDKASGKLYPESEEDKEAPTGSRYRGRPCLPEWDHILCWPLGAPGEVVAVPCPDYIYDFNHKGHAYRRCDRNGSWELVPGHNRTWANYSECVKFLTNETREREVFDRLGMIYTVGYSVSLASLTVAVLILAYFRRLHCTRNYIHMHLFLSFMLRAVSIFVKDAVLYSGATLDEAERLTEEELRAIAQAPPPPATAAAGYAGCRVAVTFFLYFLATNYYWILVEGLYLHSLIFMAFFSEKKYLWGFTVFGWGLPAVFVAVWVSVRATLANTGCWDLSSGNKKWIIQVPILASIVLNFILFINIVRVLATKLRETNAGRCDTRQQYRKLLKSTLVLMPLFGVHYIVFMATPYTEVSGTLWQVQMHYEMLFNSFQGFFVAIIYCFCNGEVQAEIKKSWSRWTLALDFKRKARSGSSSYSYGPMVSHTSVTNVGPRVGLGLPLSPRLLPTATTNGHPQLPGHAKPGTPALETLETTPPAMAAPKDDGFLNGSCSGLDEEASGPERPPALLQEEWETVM
Assay: In vitro cAMP signal activity in HKRK-B7 cells (LLC-PK1 cells overexpressing the human PTH1 receptor)
Format: cell-based
Details: HKRK-B7 cells; compound at 1×10^−3 M; cAMP produced as percentage of that produced by hPTH(1-34) at 100 nM

| SMILES | cAMP production activity (%) |
| --- | --- |
| Cc1cc(OCCCN(C)C)ccc1CCS(=O)(=O)N1CCC2(CC1)N=C(c1cccc(OC(F)(F)F)c1)NC2=O [Compound 295, 8-{2-[4-(3-dimethylamino-propoxy)-2-methyl-phenyl]-ethanesulfonyl}-2-(3-trifluoromethoxy-phenyl)-1,3,8-triaza-spiro[4.5]dec-1-en-4-one] | 95% |
| Cc1cc(N2C[C@H](O)CC2=O)ccc1CCS(=O)(=O)N1CCC2(CC1)N=C(c1cccc(C(F)(F)F)c1)NC2=O [Compound 297, 8-{2-[4-((R)-4-hydroxy-2-oxo-pyrrolidin-1-yl)-2-methyl-phenyl]-ethanesulfonyl}-2-(3-trifluoromethyl-phenyl)-1,3,8-triaza-spiro[4.5]dec-1-en-4-one] | 91% |
| Cc1cc(N(C)C(=O)CO)ccc1CCS(=O)(=O)N1CCC2(CC1)N=C(c1cccc(OC(F)(F)F)c1)NC2=O [Compound 300, 2-hydroxy-N-methyl-N-(3-methyl-4-{2-[4-oxo-2-(3-trifluoromethoxy-phenyl)-1,3,8-triaza-spiro[4.5]dec-1-ene-8-sulfonyl]-ethyl}-phenyl)-acetamide] | 73% |
| O=C1NC(c2cccc(OC(F)(F)F)c2)=NC12CCN(S(=O)(=O)CCc1ccccc1C(F)(F)F)CC2 [Compound 304, 2-(3-trifluoromethoxy-phenyl)-8-[2-(2-trifluoromethyl-phenyl)-ethanesulfonyl]-1,3,8-triaza-spiro[4.5]dec-1-en-4-one] | 47% |
| O=C1NC(c2cccc(OC(F)(F)F)c2)=NC12CCN(S(=O)(=O)CCc1cccc3[nH]ccc13)CC2 [Compound 305, 8-[2-(1H-indol-4-yl)-ethanesulfonyl]-2-(3-trifluoromethoxy-phenyl)-1,3,8-triaza-spiro[4.5]dec-1-en-4-one] | 73% |

Continued, values first:

| cAMP production activity (%) | SMILES |
| --- | --- |
| 65% | Cc1cc(N2C[C@H](CO)OC2=O)ccc1CCS(=O)(=O)N1CCC2(CC1)N=C(c1cccc(C(F)(F)F)c1)NC2=O [Compound 296, 8-{2-[4-((R)-5-hydroxymethyl-2-oxo-oxazolidin-3-yl)-2-methyl-phenyl]-ethanesulfonyl}-2-(3-trifluoromethyl-phenyl)-1,3,8-triaza-spiro[4.5]dec-1-en-4-one] |
| 63% | CC(=O)Nc1ccc(CCS(=O)(=O)N2CCC3(CC2)N=C(c2cccc(C(F)(F)F)c2)NC3=O)c(C)c1 [Compound 298, N-(3-methyl-4-{2-[4-oxo-2-(3-trifluoromethyl-phenyl)-1,3,8-triaza-spiro[4.5]dec-1-ene-8-sulfonyl]-ethyl}-phenyl)-acetamide] |
| 83% | CC(=O)N(C)c1ccc(CCS(=O)(=O)N2CCC3(CC2)N=C(c2cccc(OC(F)(F)F)c2)NC3=O)c(C)c1 [Compound 299, N-methyl-N-(3-methyl-4-{2-[4-oxo-2-(3-trifluoromethoxy-phenyl)-1,3,8-triaza-spiro[4.5]dec-1-ene-8-sulfonyl]-ethyl}-phenyl)-acetamide] |
| 72% | Cc1cc(N(C)C(N)=O)ccc1CCS(=O)(=O)N1CCC2(CC1)N=C(c1cccc(OC(F)(F)F)c1)NC2=O [Compound 301, 1-methyl-1-(3-methyl-4-{2-[4-oxo-2-(3-trifluoromethoxy-phenyl)-1,3,8-triaza-spiro[4.5]dec-1-ene-8-sulfonyl]-ethyl}-phenyl)-urea] |
| 95% | CC(=O)Nc1cc(C)c(CCS(=O)(=O)N2CCC3(CC2)N=C(C2CCCCC2)NC3=O)c(C)c1 [Compound 302, N-{4-[2-(2-cyclohexyl-4-oxo-1,3,8-triaza-spiro[4.5]dec-1-ene-8-sulfonyl)-ethyl]-3,5-dimethyl-phenyl}-acetamide] |
| 76% | O=C1NC(C2CCCCC2)=NC12CCN(S(=O)(=O)CCc1cccc3[nH]ccc13)CC2 [Compound 303, 2-Cyclohexyl-8-[2-(1H-indol-4-yl)-ethanesulfonyl]-1,3,8-triaza-spiro[4.5]dec-1-en-4-one] |
